Series [1] is described as follows: isoelectric point by preparative isoelectric focusing. The series is classed as physicochemical. As to the method:
It is preferred that the compound of formula II be separated conventionally from Thymosin Fraction 5 using preparative isoelectric focusing, with the proteins recovered therefrom being purified by HPLC. By such a procedure, for example, 1.2 grams of Thymosin Fraction 5 provided 16 mg of thymosin α1, 16 mg of thymosin β4 and 1 mg of the compound of formula II. The isoelectric point for the compound of formula II was pH 4.62.
Any reverse phase hydrophobic resin may be employed in a conventional manner in the HPLC isolation. Among such resins there are included, for example, a hydrocarbon (C8 to C18) on any inert matrix such as silica gel, glass, polysaccharides and the like, which matrix is inert to the eluting agent being employed. The preferred resin is a straight chain C18 hydrocarbon bonded to silica gel or glass beads. […]
A sample of thymosin Fraction 5 (1.2 g) was dissolved in 100 ml of 2% ampholine for separation in the pH range 4-6 and filtered through a 0.45 μm molecular pore filter. […] The focused gel was cut with a grid into 30 sections, each of which was eluted on a small column with 5 ml of H2 O. The pH of eluate was determined at 0° C. […] Fractions (0.7 ml) were collected every 2 min and aliquots (5 μl of a 1:25 dilution) of each aliquot analyzed by direct injection into the borate buffer line of the fluorescamine detector, because the automatic column monitoring was off-scale.

For series [2], the system named is Candida albicans ATCC 10231. Briefly: protective activity against opportunistic infections in immunosuppressed mice. The series is classed as in vivo. Conditions: female ddY mice infected with Candida albicans 24 hours after last treatment. Here is the method:
The compounds of formula I were tested for protective activity against opportunistic infections in immunosuppressed mice. Female ddY mice (6 weeks old) weighing about 25 g were pretreated daily for eight days with 5-fluorouracil (5-FU) (25 mg/kg/day, i.p.) and with thymosin α1or with compounds of formula I (i.p.) at varying dosages. The mice were then infected with Candida albicans ATCC 10231 (1×10^5 cells or more) at 24 hours after the last treatment. One control group was administered 5-FU and saline solution and a second control group received neither 5-FU nor a thymic polypeptide prior to infection with Candida albicans.

Setting [3] is: 4 μg/kg/day i.p. daily for eight days with 5-FU 25 mg/kg/day i.p.
[4] abbreviates: 40 μg/kg/day i.p. daily for eight days with 5-FU 25 mg/kg/day i.p.
Setting [5] is: 0.4 μg/kg/day i.p. daily for eight days with 5-FU 25 mg/kg/day i.p.

Data on four substances can be found in US4389343A, “Immunopotentiating peptides from thymus” (Hoffmann-La Roche Inc., priority 1981, dated 1983).

Where no end group is shown, it is not given here.

“Thymosin β9: polypeptide from fresh frozen calf thymus, identical to thymosin β8 plus --Ala--LysOH at the COOH-terminus, 4,717 daltons, 41 amino acids (ADKPDLGEINSFDKAKLKKTETQEKNTLPTKETIEQEKQAK; not fully specified; Thymosin beta-9; UniProt P21752 2-42, looked up)”: the isoelectric point in series [1] is reported as 5.14 pH.
As to “Thymosin α1: acidic peptide containing 28 amino acid residues isolated from Thymosin Fraction 5, U.S. Pat. No. 4,079,127 (SDAAVDTSSEITTKDLKEKKEVVEEAEN; ends and bridges not checked; UniProt P01252 2-29, looked up)”, in series [2] (setting [3]), the “Survivors at Day 8” value was 7/10 and the “Survivors at Day 15” value is on record as 6/10. In series [2] (setting [4]), the “Survivors at Day 8” value is recorded as 7/10 and the “Survivors at Day 15” value is 7/10.
Turning to “Thymosin β8: polypeptide isolated from calf thymus Fraction 5, 4,518 daltons, 39 amino acid residues, NH2-terminus acetyl alanine (ADKPDLGEINSFDKAKLKKTETQEKNTLPTKETIEQEKQ; thymosin beta-8 N-terminal acetyl; UniProt P21752 2-40, looked up, fragment)”, the isoelectric point in series [1] was determined as 4.62 pH.
Consider “Thymosin β4: peptide isolated from Thymosin Fraction 5 containing 44 amino acid residues”, for which the “Survivors at Day 8” value in series [2] (setting [5]) was 7/10; in series [2] (setting [3]), 5/10; in series [2] (setting [4]), 1/10. For the same substance, the “Survivors at Day 15” value in series [2] (setting [5]) was 6/10; in series [2] (setting [3]) it was 5/10; in series [2] (setting [4]) it was 1/10.
